This is an account of results in PMC7827406, “Structure–Activity Relationship (SAR) Study of Spautin-1 to Entail the Discovery of Novel NEK4 Inhibitors” (International Journal of Molecular Sciences, 2021).

SMILES strings stand for the structures. Where two headings read alike, the source gives them in different places.

Holding throughout (experiment): biochemical
Holding throughout (set-up): Eurofins KinaseProfiler full panel at Km ATP, residual kinase activity (%) relative to DMSO

The target of one experiment is T1, MST3(h) (Homo sapiens, UniProt Q9Y6E0).
T1 construct: gene STK24
The gist of the method:
(§1)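 Two 10 µM single-concentration screens were run: a competition-binding screen, in which DNA-tagged kinase bound to immobilized ligands was quantified by qPCR, and a radiometric activity panel at Km ATP. Each is expressed as residual kinase activity (%).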

Another experiment deals with CDK17/cyclinY(h) (Homo sapiens, UniProt Q00537). In short, it runs like this:
as §1

The target in the next experiment is GRK5(h) (Homo sapiens, UniProt P34947). The gist of the method: as §1
The next experiment concerns the target T2, PRK1(h) (Homo sapiens, UniProt Q16512).
T2 construct: gene PKN1
In short, it runs like this:
as §1

A further experiment addresses T3, EphB1(h) (Homo sapiens, UniProt P54762).
T3 sequence (P54762 1-984): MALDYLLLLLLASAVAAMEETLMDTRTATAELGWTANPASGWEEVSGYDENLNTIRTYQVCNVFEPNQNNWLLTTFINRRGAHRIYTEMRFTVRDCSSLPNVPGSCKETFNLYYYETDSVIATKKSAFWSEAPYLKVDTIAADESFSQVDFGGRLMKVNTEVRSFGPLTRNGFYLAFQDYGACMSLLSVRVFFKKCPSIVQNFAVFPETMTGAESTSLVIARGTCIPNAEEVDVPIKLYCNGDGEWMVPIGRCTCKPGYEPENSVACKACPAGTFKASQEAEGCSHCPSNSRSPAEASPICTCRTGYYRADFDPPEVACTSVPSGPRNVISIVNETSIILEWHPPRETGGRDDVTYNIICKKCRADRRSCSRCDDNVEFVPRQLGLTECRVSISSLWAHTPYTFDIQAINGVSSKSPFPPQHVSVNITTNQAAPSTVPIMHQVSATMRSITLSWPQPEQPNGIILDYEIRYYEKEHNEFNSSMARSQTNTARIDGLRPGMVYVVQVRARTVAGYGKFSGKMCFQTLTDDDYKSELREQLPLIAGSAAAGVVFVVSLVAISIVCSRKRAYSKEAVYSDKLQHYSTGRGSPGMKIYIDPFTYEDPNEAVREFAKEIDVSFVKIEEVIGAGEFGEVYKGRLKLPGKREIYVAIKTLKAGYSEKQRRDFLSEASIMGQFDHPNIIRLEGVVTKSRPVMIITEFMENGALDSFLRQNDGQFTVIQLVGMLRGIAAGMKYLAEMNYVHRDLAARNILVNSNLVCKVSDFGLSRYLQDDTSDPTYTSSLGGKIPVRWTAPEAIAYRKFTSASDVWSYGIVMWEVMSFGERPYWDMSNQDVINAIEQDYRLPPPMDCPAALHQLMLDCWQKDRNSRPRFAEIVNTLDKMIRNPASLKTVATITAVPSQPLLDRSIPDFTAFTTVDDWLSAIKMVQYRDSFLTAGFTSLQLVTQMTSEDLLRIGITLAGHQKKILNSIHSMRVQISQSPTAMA
In short, it runs like this: as §1

A further experiment addresses Ret(h) (Homo sapiens, UniProt P07949). The gist of the method:
as §1

A further experiment concerns the target T4, TAK1(h) (Homo sapiens, UniProt O43318).
T4 construct: gene MAP3K7
T4 sequence (O43318 1-606): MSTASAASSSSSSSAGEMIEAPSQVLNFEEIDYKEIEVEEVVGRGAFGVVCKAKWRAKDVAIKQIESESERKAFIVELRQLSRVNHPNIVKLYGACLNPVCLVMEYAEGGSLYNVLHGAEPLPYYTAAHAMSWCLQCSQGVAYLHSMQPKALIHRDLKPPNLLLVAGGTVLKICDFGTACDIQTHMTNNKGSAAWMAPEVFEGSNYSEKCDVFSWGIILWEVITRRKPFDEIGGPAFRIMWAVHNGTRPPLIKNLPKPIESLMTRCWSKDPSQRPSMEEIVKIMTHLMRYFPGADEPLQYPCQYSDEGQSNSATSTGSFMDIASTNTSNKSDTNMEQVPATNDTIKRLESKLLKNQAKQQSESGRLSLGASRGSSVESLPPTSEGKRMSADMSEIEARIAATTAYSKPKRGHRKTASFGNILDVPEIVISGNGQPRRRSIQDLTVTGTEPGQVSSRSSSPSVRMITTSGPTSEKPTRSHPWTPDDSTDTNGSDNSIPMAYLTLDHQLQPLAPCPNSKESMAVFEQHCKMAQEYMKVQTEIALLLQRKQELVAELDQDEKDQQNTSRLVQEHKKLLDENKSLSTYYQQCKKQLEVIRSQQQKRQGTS
In short, it runs like this: as §1

Another experiment addresses T5, PTK5(h) (Homo sapiens, UniProt P42685).
T5 construct: gene FRK
In short, it runs like this: as §1

Another experiment concerns the target PAK5(h) (Homo sapiens, UniProt Q9P286). In short, it runs like this:
as §1

The mark [1] stands for this setting: read-out: Residual activity (%) Spautin-1 5aa.
The mark [2] stands for this setting: read-out: Residual activity (%) 5as.
Setting [3] is: read-out: Residual activity (%) 5at.
The mark [4] stands for this setting: read-out: Residual activity (%) 5ay.

T2 sequence (Q16512 whole entry): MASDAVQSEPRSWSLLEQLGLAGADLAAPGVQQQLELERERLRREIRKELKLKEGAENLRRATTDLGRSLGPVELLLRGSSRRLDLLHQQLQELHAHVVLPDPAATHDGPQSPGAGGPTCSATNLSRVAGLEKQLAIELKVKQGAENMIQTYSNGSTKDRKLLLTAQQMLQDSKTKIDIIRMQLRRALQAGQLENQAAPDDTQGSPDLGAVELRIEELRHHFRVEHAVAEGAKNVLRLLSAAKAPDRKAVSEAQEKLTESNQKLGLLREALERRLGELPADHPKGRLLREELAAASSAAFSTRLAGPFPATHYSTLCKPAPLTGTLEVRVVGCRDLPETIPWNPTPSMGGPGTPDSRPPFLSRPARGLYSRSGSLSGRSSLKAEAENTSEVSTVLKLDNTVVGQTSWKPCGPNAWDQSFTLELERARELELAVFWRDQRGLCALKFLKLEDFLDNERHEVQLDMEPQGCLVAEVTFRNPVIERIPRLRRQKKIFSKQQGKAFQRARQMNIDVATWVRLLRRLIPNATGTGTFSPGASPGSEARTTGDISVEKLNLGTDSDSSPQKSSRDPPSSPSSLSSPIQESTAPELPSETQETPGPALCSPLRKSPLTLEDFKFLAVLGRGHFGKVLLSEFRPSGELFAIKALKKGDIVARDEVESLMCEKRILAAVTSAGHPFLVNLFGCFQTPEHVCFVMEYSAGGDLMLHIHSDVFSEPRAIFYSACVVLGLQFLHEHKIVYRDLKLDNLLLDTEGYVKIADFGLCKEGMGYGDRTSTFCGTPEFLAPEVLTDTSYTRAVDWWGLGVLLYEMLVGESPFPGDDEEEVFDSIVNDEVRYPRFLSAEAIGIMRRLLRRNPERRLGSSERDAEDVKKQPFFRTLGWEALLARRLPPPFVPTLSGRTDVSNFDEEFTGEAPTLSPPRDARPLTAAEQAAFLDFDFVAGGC
Sequence of CDK17/cyclinY(h) (Q00537 whole entry): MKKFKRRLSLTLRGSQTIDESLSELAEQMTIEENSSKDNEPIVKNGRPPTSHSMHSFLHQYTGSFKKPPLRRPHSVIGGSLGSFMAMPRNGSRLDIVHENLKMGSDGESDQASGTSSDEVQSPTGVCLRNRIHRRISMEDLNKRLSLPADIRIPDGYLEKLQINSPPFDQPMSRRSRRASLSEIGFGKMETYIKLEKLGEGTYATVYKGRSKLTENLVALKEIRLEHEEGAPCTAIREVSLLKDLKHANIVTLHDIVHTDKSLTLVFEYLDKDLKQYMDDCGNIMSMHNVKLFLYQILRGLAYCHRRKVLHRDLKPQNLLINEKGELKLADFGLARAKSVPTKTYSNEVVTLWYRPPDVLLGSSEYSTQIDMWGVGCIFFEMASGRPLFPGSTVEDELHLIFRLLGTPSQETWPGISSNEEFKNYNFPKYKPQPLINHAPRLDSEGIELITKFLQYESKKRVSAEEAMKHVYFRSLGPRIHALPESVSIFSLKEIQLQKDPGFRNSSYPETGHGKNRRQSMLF
Sequence of CDK17/cyclinY(h) (Q8ND76 whole entry partner): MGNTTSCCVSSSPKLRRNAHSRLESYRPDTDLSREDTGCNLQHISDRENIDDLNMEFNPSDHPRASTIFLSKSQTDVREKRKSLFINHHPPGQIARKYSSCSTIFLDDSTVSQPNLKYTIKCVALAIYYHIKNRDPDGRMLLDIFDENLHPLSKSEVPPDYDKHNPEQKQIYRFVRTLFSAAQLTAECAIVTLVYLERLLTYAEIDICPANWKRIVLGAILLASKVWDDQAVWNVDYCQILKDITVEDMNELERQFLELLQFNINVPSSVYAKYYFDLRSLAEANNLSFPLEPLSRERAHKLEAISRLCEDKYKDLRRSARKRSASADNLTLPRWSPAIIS
Sequence of PAK5(h) (Q9P286 whole entry): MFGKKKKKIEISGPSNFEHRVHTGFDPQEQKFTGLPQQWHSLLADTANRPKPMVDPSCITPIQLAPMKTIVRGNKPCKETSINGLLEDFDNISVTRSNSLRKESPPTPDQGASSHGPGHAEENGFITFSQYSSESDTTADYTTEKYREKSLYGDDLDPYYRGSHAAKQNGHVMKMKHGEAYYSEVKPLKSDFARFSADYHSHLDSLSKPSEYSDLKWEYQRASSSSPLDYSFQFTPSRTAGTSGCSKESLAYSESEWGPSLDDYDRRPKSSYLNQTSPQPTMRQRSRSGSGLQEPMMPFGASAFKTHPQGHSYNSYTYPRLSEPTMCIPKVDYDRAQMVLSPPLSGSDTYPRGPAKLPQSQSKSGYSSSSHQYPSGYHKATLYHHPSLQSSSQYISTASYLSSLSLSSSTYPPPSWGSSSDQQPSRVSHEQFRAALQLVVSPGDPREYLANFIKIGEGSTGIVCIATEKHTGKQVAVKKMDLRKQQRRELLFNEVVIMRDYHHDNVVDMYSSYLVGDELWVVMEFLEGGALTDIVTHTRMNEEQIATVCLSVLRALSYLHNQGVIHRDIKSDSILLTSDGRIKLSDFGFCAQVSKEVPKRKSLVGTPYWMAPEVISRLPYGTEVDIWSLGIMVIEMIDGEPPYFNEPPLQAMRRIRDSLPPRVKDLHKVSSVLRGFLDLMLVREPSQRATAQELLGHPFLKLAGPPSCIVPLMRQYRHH
Sequence of Ret(h) (P07949 whole entry): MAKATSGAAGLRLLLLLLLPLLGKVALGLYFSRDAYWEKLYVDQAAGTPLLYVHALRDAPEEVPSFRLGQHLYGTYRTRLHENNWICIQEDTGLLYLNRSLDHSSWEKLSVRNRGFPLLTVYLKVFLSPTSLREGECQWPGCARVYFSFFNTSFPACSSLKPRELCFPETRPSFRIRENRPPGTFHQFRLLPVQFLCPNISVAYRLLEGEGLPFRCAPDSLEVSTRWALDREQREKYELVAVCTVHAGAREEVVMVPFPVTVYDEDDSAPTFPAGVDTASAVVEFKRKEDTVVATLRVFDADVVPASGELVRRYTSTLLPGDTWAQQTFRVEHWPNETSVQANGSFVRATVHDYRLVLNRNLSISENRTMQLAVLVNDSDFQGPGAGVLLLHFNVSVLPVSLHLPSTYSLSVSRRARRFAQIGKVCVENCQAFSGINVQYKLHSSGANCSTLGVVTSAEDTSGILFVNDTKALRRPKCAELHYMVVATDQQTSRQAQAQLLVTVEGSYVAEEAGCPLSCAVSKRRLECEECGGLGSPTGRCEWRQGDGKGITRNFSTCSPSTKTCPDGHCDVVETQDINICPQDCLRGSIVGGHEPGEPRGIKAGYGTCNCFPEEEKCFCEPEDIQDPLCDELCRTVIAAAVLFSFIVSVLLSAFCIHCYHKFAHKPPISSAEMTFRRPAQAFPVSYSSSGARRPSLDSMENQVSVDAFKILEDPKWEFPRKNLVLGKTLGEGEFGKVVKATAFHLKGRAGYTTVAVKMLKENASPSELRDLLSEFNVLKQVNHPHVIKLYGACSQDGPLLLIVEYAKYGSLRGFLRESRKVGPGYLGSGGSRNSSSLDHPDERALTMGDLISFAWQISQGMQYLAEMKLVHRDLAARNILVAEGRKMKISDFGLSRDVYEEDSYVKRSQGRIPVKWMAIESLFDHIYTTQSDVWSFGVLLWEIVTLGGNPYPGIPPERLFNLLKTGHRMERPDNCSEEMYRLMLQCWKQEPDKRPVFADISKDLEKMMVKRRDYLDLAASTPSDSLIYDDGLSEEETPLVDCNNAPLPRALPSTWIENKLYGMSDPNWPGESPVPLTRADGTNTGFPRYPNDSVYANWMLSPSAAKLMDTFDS
T1 sequence (Q9Y6E0 whole entry): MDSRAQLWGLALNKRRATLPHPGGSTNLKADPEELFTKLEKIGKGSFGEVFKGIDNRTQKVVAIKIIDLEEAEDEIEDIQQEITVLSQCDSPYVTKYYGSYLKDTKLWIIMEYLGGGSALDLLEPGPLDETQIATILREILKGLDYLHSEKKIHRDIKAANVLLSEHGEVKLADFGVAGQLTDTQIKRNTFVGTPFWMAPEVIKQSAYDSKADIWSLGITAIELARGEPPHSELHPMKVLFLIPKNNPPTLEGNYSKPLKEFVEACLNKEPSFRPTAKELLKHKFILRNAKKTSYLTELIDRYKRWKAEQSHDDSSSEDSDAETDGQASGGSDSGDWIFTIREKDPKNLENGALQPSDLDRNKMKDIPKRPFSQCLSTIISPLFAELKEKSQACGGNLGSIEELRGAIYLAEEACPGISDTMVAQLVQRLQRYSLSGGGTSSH
T5 sequence (P42685 whole entry): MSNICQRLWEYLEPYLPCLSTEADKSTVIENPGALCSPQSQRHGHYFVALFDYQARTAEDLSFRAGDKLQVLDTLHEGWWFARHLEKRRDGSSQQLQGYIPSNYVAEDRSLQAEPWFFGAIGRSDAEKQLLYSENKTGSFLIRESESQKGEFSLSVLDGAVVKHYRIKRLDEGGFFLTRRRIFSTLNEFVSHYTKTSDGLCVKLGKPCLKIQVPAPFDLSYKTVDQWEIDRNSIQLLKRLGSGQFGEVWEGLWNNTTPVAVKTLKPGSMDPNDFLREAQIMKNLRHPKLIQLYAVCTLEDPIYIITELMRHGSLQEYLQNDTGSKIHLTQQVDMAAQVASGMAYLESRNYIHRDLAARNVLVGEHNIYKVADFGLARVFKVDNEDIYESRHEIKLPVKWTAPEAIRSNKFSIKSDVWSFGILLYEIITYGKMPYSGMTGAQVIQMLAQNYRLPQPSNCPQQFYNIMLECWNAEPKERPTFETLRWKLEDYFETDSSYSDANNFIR

On to `Fc1ccc(CNc2ncnc3ccc(F)cc23)cc1` [5aa, 6-Fluoro-N-(4-fluorobenzyl)-4-Quinazolinamine], for which the remaining activity at 10 µM on MST3(h) (setting [1]) was determined as 80%; at CDK17/cyclinY(h) (setting [1]), 82%; on GRK5(h) (setting [1]) it was 86%; at PRK1(h) (setting [1]), 89%; at EphB1(h) (setting [1]) it was 84%; on Ret(h) (setting [1]), 69%. Moreover, the values for the remaining activity at 10 µM at TAK1(h) (setting [1]), on PTK5(h) (setting [1]) and at PAK5(h) (setting [1]) were 74%, 85% and 95%, respectively.
Take `Fc1ccc(CCNc2ncnc3ccc(F)cc23)cc1` [5as, 6-Fluoro-N-[2-(4-Fluorophenyl)Ethyl]-4-Quinazolinamine]: the remaining activity at 10 µM at MST3(h) (setting [2]) is 89%; on CDK17/cyclinY(h) (setting [2]), 80%; at GRK5(h) (setting [2]), 95%; at PRK1(h) (setting [2]), 72%; at EphB1(h) (setting [2]), 90%; on Ret(h) (setting [2]), 99%. The remaining activity at 10 µM stood at 83% on TAK1(h) (setting [2]), 84% at PTK5(h) (setting [2]) and 85% at PAK5(h) (setting [2]).
Turning to `Fc1ccc2ncnc(NCCc3ccc(Cl)cc3)c2c1` [5at, N-[2-(4-Chlorophenyl)Ethyl]-6-Fluoro-4-Quinazolinamine], the remaining activity at 10 µM at MST3(h) (setting [3]) worked out at 74%; on CDK17/cyclinY(h) (setting [3]) it was 88%; at GRK5(h) (setting [3]), 96%; on PRK1(h) (setting [3]) it was 80%; at EphB1(h) (setting [3]) it was 95%; on Ret(h) (setting [3]) it was 62%. The values for the remaining activity at 10 µM at TAK1(h) (setting [3]), on PTK5(h) (setting [3]) and at PAK5(h) (setting [3]) were 82%, 95% and 86%, respectively.
Consider `COc1ccc2ncnc(Nc3cccc(F)c3)c2c1` [5ay, N-(3-Fluorophenyl)-6-Methoxy-4-Quinazolinamine], for which the remaining activity at 10 µM on MST3(h) (setting [4]) was 86%; on CDK17/cyclinY(h) (setting [4]) it was 74%; on GRK5(h) (setting [4]), 89%; on PRK1(h) (setting [4]), 77%; at EphB1(h) (setting [4]), 88%; on Ret(h) (setting [4]) it was 43%. The remaining activity at 10 µM at TAK1(h) (setting [4]) stood at 74%; on PTK5(h) (setting [4]), 64%; at PAK5(h) (setting [4]) it was 83%.
